Laboratory results taken from patent US20260217828A1, “IMMUNE CHECKPOINT BLOCKADE THERAPY FOR TREATING STAPHYLOCOCCUS AUREUS INFECTIONS” (priority 2023, published 2026).

Tested on: bioluminescent MRSA (USA300 LAC::lux)
Assay: Transtibial implant-associated osteomyelitis in C57BL/6 mice, treated with sabatolimab or saline placebo
Type: in vivo, Staphylococcus aureus
Conditions: vs saline placebo
Description: (FIG. 7A) Schematic illustration of the experimental design. 8-week-old C57BL/6 mice were subjected to transtibial implant-associated osteomyelitis using bioluminescent MRSA (USA300 LAC::lux) and treated with sabatolimab or a saline placebo control. The concentration of anti-TIM-3 mAb used in the study is also outlined.
Similar assays were carried out to examine the efficacy trend of immune checkpoint blockade drug Sabatolimab (anti-TIM-3) in reducing S. aureus burden due to implant-associated osteomyelitis.
Briefly, 8-week-old C57BL/6 mice were subjected to transtibial implant-associated osteomyelitis using bioluminescent MRSA (USA300 LAC::lux). The mise were then treated with sabatolimab or a saline placebo control. The concentration of anti-TIM-3 mAb used in the study was also outlined in FIG. 7A.

## sabatolimab: immune checkpoint blockade drug Sabatolimab (anti-TIM-3)
8-week-old C57BL/6 mice, MRSA USA300 LAC::lux, n=9-10, ANOVA p<0.05
  in vivo S. aureus growth (longitudinal BLI): significantly decreased
C57BL/6 mice, day 14 post-surgery, n=9-10, t-test p<0.05
  disease severity by terminal ex vivo CFU on the tibia and internal organs (heart, liver, kidneys, and spleen): lower disease severity
